Values of other authors in patent US11230722B2, “Nutritional supplements and therapeutic compositions comprising (r)-3-hydroxybutyrate derivatives” (Oxford University Innovation Limited, priority 2003, dated 2022).

System: gastric enzymes

For `C[C@@H]1CC(=O)O[C@H](C)CC(=O)O[C@H](C)CC(=O)O1` [triolide, cyclic trimer of (R)-3-hydroxybutyrate], the absorption is given as “only poorly absorbed” and the “hydrolysis by gastric enzymes” value is given as “not efficiently hydrolyzed”.
